pKd: −log10 of the molar value. Read-outs that look alike come from different tables or passages of the source. Peptide text beside a SMILES is read from it. * marks the point of attachment. Biotin = O=C1N[C@H]2[C@H](CS[C@H]2CCCCC(=O)*)N1
How the values were obtained:
[1] = target: T1, PDZ-domain polypeptide (GST/PDZ fusion protein) (Homo sapiens, UniProt Q12923); assay: Apparent affinity (Kd) by titration of PL peptide in the G assay; type: binding; conditions: PDZ PTPL-1, PDZ Domain 2
T1 construct: made in house; host or cells: E. coli (DH5alpha, BL21 or JM109)
T1 sequence (Q12923 whole entry, the tested form may be a part): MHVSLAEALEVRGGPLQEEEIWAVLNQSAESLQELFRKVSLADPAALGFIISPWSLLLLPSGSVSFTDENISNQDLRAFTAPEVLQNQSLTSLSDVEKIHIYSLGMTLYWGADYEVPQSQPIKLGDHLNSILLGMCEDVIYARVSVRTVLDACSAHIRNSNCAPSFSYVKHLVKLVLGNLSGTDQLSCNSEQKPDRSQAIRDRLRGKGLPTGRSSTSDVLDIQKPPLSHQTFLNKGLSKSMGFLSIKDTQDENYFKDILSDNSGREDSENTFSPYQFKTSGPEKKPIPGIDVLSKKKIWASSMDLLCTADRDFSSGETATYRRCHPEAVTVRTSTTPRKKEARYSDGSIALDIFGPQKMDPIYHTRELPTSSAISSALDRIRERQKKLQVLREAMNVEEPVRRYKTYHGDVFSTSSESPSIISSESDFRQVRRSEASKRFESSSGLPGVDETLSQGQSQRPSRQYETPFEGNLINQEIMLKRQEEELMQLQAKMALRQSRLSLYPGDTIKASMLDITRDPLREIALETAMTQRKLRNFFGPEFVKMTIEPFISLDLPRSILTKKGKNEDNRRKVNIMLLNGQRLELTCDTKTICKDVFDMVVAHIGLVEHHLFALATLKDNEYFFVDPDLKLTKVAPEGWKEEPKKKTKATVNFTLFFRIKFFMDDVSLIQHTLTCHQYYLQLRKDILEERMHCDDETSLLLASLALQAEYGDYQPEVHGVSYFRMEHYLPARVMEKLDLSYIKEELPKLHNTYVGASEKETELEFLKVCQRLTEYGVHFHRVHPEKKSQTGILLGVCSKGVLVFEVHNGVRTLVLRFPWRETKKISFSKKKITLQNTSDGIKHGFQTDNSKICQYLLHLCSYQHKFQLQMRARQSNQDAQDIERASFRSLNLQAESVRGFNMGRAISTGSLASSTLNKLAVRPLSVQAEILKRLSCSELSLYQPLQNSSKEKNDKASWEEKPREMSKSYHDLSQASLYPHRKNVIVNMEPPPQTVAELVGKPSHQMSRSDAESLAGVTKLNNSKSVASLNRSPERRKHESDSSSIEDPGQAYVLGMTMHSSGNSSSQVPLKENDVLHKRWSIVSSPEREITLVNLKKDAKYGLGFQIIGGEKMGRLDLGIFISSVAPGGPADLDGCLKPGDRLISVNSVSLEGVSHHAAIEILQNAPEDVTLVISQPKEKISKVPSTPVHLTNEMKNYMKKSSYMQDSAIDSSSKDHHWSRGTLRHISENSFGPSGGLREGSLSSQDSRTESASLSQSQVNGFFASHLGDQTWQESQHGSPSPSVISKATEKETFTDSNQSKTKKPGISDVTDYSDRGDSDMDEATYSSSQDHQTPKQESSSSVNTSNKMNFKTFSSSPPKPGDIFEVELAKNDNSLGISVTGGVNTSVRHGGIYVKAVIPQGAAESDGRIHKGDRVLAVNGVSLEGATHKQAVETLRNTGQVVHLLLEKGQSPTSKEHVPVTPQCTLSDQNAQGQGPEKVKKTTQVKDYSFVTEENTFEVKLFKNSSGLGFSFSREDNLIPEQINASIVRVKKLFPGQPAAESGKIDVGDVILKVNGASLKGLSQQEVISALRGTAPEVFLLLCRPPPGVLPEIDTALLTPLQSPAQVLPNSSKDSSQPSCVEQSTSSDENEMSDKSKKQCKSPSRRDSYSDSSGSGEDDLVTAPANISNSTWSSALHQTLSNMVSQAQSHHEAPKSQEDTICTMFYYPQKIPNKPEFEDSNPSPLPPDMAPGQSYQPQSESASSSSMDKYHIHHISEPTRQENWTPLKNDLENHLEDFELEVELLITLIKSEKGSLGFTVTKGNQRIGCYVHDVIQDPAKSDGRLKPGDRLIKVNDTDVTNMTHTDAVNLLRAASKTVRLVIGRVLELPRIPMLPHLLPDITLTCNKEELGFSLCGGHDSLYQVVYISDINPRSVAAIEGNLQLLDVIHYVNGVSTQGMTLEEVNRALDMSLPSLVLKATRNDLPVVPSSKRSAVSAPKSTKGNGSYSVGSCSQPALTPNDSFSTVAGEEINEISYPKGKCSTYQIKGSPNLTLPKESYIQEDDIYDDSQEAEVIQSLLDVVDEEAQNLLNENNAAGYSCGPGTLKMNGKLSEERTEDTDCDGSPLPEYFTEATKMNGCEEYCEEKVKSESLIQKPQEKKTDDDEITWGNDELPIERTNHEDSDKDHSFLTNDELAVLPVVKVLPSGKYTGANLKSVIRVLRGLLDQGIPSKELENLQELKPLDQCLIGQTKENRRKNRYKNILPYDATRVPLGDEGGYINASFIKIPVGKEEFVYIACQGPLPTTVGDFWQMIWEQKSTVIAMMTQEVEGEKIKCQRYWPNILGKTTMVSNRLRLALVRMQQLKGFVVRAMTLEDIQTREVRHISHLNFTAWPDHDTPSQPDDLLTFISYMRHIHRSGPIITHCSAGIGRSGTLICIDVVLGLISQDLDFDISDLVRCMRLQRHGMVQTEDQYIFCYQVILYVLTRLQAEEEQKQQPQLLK
In short: (§1)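 A fixed concentration of GST/PDZ fusion protein, 5 ug/ml by default, was mixed in solution with increasing labeled PL peptide (e.g. 0.1 uM-1 mM). Reaction times ranged from 10 minutes to 2 days at 4-37° C. Complexes were separated from free peptide and detected via the label as in the G assay, apparent affinity coming from the saturating concentration.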

[2] = target: T2, PDZ-domain polypeptide (GST/PDZ fusion protein) (Homo sapiens, UniProt Q5TCQ9); assay: as above; type: binding
T2 construct: made in house; host or cells: E. coli (DH5alpha, BL21 or JM109)
T2 sequence (Q5TCQ9 1-1481): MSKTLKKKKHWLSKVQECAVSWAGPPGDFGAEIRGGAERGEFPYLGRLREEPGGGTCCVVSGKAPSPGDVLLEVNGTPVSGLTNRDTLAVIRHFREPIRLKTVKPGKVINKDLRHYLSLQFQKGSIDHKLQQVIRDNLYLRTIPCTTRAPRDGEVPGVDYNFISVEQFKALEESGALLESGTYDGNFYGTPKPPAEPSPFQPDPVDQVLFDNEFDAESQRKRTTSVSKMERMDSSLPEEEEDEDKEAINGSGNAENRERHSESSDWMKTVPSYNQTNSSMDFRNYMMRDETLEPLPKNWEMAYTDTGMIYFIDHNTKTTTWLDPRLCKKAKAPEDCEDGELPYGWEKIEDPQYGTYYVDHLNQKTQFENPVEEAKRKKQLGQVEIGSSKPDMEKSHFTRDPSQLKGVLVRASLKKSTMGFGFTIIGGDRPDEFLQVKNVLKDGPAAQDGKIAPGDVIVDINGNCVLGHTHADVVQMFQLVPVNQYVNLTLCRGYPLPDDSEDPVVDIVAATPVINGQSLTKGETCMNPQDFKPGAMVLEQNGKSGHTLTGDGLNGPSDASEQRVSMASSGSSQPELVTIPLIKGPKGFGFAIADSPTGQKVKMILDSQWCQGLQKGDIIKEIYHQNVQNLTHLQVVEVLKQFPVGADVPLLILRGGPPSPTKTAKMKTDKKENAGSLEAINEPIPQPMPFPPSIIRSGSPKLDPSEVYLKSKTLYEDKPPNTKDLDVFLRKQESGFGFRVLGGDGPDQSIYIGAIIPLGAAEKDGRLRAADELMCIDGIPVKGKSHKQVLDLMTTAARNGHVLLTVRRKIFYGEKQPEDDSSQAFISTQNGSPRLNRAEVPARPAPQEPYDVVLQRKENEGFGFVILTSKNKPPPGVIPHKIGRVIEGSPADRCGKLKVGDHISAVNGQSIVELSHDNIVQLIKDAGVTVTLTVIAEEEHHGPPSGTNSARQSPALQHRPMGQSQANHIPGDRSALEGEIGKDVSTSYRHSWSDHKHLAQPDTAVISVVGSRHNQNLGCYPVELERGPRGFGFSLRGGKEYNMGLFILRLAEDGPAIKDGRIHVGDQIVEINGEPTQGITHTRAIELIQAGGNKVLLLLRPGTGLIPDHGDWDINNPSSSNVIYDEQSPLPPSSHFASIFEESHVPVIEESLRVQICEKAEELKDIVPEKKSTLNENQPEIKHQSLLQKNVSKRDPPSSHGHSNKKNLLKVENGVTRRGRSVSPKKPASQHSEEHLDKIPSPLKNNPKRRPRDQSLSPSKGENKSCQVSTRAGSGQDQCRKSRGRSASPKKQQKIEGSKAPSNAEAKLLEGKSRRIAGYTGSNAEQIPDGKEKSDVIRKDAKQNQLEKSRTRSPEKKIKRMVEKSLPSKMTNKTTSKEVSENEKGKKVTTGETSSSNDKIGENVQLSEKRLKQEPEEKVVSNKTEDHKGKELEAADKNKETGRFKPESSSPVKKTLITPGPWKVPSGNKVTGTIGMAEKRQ
In short: as §1

pKd ([1]; read-out: Peptide Optimal Conc (non-zero value: Kd by titration of the PL peptide))	pKd ([2]; PDZ KIAA1634, PDZ Domain 2, read-out: Peptide Optimal Conc (non-zero value: Kd by titration of the PL peptide))	SMILES	pKd ([1]; Protein Optimal Conc 5, read-out: Peptide Optimal Conc (Kd by titration of the PL peptide))	pKd ([2]; PDZ KIAA1634, PDZ Domain 2, Protein Optimal Conc 5, read-out: Peptide Optimal Conc (Kd by titration of the PL peptide))	pKd ([2]; PDZ KIAA1634, PDZ Domain 4, Protein Optimal Conc 5, read-out: Peptide Optimal Conc (Kd by titration of the PL peptide))
–	–	CC[C@H](C)[C@H](NC(=O)[C@H](CCCCN)NC(=O)[C@@H](NC(=O)[C@H](CO)NC(=O)[C@@H]1CCCN1C(=O)[C@H](Cc1ccccc1)NC(=O)[C@@H](NC(=O)[C@@H](NC(=O)[C@H](CCCNC(=N)N)NC(=O)[C@H](CCC(=O)O)NC(=O)[C@H](CC(C)C)NC(=O)[C@H](CC(C)C)NC(=O)[C@H](CC(C)C)NC(=O)[C@@H](NC(=O)CNC(=O)[C@@H](NC(=O)CCCC[C@@H]1SC[C@@H]2NC(=O)N[C@@H]21)C(C)C)[C@@H](C)O)C(C)C)[C@@H](C)CC)C(C)C)C(=O)N[C@@H](C)C(=O)N[C@H](C(=O)N[C@@H](CC(C)C)C(=O)N[C@H](C(=O)O)C(C)C)[C@@H](C)O [Adenovirus E4 Type9]	6.70	6.82	6.70
5.22	5.15	CC[C@H](C)[C@H](NC(=O)[C@H](Cc1c[nH]cn1)NC(=O)[C@H](C)NC(=O)[C@H](C)NC(=O)[C@H](CO)NC(=O)[C@@H]1CCCN1C(=O)[C@H](CCCNC(=N)N)NC(=O)[C@H](CC(=O)O)NC(=O)[C@H](CCCCN)NC(=O)[C@@H]1CCCN1C(=O)[C@H](CC(=O)O)NC(=O)[C@H](CCC(=O)O)NC(=O)CCCC[C@@H]1SC[C@@H]2NC(=O)N[C@@H]21)C(=O)N[C@H](C(=O)N[C@@H](CCC(=O)O)C(=O)N[C@@H](C)C(=O)N[C@@H](CC(C)C)C(=O)N[C@@H](CCC(=O)O)C(=O)N[C@H](C(=O)N[C@@H](CC(=O)O)C(=O)N[C@H](C(=O)O)C(C)C)[C@@H](C)O)C(C)C [PDZ-binding kinase (PBK)] (Biotin-EDPKDRPSAAHIVEALETDV-OH; C-terminus assumed)	–	–	–
